# From patent EP2518054A1, “AMIDE COMPOUND” (Takeda Pharmaceutical Company Limited, priority 2009, dated 2011)
# Target: T1, human GPR52 (Homo sapiens, UniProt Q9Y2T5)
# T1 construct: expressed in transfected cells; host or cells: CHO(dhfr-) cells
# Assay: Increase of intracellular cAMP concentration in human GPR52-expressing CHO cell (AlphaScreen cAMP assay)
# Format: cell-based
# Settings: 1µM test compound; 100% = cAMP with 1 µM Reference Example 79, 0% = DMSO; human GPR52-expressing CHO(dhfr-) cells, 37°C, 30 min
# Protocol: Increase of intracellular cAMP concentration in human GPR52-expressing CHO cell
# Using OptiPlate-384 (PerkinElmer Inc.), 1×10^4 human GPR52-expressing CHO(dhfr-) cells were incubated together with various concentration(10^-5µM - 10µm) of a test compound in an assay buffer (30 µL, HBSS (containing Ca^2+ and Mg^2+), 0.5% BSA, 100 µM IBMX, 100 µM Ro20-1724, 5 mM HEPES (pH 7.55)) at 37°C for 30 min. Thereafter, according to the protocol of AlphaScreen CAMP Assay Kit (PerkinElmer Inc.), the intracellular cAMP concentration was measured by EnVision (PerkinElmer Inc.). The GPR52 agonist activity was calculated, assuming the intracellular cAMP concentration in the presence of […] N-(2-hydroxyethyl)-3-[2-[3-(trifluoromethyl)benzyl]-1-benzofuran-4-yl]benzamide (Reference Example 79) to be 100% and assuming the intracellular cAMP concentration when DMSO was added instead of the test compound to be 0%.
# T1 sequence (Q9Y2T5 whole entry): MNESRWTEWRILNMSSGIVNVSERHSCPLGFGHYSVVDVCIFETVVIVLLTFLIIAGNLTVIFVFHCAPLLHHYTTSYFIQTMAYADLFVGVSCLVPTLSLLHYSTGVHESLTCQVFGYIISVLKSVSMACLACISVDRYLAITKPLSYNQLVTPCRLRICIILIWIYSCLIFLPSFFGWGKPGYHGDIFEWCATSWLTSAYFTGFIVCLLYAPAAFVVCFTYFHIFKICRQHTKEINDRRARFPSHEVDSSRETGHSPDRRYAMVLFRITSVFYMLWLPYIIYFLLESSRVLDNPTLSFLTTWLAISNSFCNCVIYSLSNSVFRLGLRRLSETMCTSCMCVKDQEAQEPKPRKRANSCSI
row,GPR52 agonist activity (%),Structure (SMILES)
1,102,"Cc1nc(-c2cccc3nn(Cc4cc(F)cc(C(F)(F)F)c4)cc23)sc1C(N)=O [Example 86, 2-[2-[3-fluoro-5-(trifluoromethyl)benzyl]-2H-indazol-4-yl]-4-methyl-1,3-thiazole-5-carboxamide]"

# Same assay, conditions: CHO, 1µM test compound; 100% = cAMP with 1 µM Reference Example 79, 0% = DMSO; human GPR52-expressing CHO(dhfr-) cells, 37°C, 30 min; read-out: GPR52 agonist activity (%)
row,activity at 1 µM [%],Structure (SMILES)
1,96,"COCCNC(=O)c1c(C)nn(-c2cccc3cc(Cc4cc(F)cc(Cl)c4)sc23)c1C [Example 57, 1-[2-(3-chloro-5-fluorobenzyl)-1-benzothiophen-7-yl]-N-(2-methoxyethyl)-3,5-dimethyl-1H-pyrazole-4-carboxamide]"
2,93,"Cc1nn(-c2ccc(F)c3cc(Cc4cc(F)cc(Cl)c4)sc23)c(C)c1C(=O)NCC(N)=O [Example 59, N-(2-amino-2-oxoethyl)-1-[2-(3-chloro-5-fluorobenzyl)-4-fluoro-1-benzothiophen-7-yl]-3,5-dimethyl-1H-pyrazole-4-carboxamide]"
3,99,"Cc1nn(-c2ccc(F)c3cc(Cc4cc(F)cc(Cl)c4)sc23)c(C)c1C(=O)NCCO [Example 60, 1-[2-(3-chloro-5-fluorobenzyl)-4-fluoro-1-benzothiophen-7-yl]-N-(2-hydroxyethyl)-3,5-dimethyl-1H-pyrazole-4-carboxamide]"
4,93,"Cc1nn(-c2ccc(F)c3cc(Cc4cccc(C(F)(F)F)c4)sc23)c(C)c1C(N)=O [Example 61, 1-[4-fluoro-2-[3-(trifluoromethyl)benzyl]-1-benzothiophen-7-yl]-3,5-dimethyl-1H-pyrazole-4-carboxamide]"
5,105,"Cc1nn(-c2ccc(F)c3cc(Cc4cccc(C(F)(F)F)c4)sc23)c(C)c1C(=O)NCCO [Example 62, 1-[4-fluoro-2-[3-(trifluoromethyl)benzyl]-1-benzothiophen-7-yl]-N-(2-hydroxyethyl)-3,5-dimethyl-1H-pyrazole-4-carboxamide]"
6,94,"Cc1nn(-c2cccc3cc(Cc4cccc(C(F)(F)F)c4)sc23)c(CO)c1C(=O)NCC(N)=O [Example 63, N-(2-amino-2-oxoethyl)-5-(hydroxymethyl)-3-methyl-1-[2-[3-(trifluoromethyl)benzyl]-1-benzothiophen-7-yl]-1H-pyrazole-4-carboxamide]"
7,97,"Cc1nn(-c2cccc3cc(Cc4cccc(C(F)(F)F)c4)sc23)c(CO)c1C(N)=O [Example 64, 5-(hydroxymethyl)-3-methyl-1-[2-[3-(trifluoromethyl)benzyl]-1-benzothiophen-7-yl]-1H-pyrazole-4-carboxamide]"
8,89,"COCCNC(=O)c1c(C)nn(-c2cccc3cc(Cc4cccc(C(F)(F)F)c4)sc23)c1CO [Example 66, 5-(hydroxymethyl)-N-(2-methoxyethyl)-3-methyl-1-[2-[3-(trifluoromethyl)benzyl]-1-benzothiophen-7-yl]-1H-pyrazole-4-carboxamide]"
9,83,"Cc1c(C(=O)NCCO)c(CO)nn1-c1cccc2cc(Cc3cccc(C(F)(F)F)c3)sc12 [Example 67, N-(2-hydroxyethyl)-3-(hydroxymethyl)-5-methyl-1-[2-[3-(trifluoromethyl)benzyl]-1-benzothiophen-7-yl]-1H-pyrazole-4-carboxamide]"
10,88,"Cc1c(C(=O)NCC(N)=O)c(CO)nn1-c1cccc2cc(Cc3cccc(C(F)(F)F)c3)sc12 [Example 68, N-(2-amino-2-oxoethyl)-3-(hydroxymethyl)-5-methyl-1-[2-[3-(trifluoromethyl)benzyl]-1-benzothiophen-7-yl]-1H-pyrazole-4-carboxamide]"
11,78,"Cc1c(C(N)=O)c(CO)nn1-c1cccc2cc(Cc3cccc(C(F)(F)F)c3)sc12 [Example 69, 3-(hydroxymethyl)-5-methyl-1-[2-[3-(trifluoromethyl)benzyl]-1-benzothiophen-7-yl]-1H-pyrazole-4-carboxamide]"
12,91,"COCc1c(C(=O)NCCO)c(C)nn1-c1cccc2cc(Cc3cccc(C(F)(F)F)c3)sc12 [Example 70, N-(2-hydroxyethyl)-5-(methoxymethyl)-3-methyl-1-[2-[3-(trifluoromethyl)benzyl]-1-benzothiophen-7-yl]-1H-pyrazole-4-carboxamide]"
13,114,"Cc1nn(-c2ccc(F)c3cc(Cc4cccc(C(F)(F)F)c4)sc23)c(CO)c1C(=O)NCCO [Example 71, 1-[4-fluoro-2-[3-(trifluoromethyl)benzyl]-1-benzothiophen-7-yl]-N-(2-hydroxyethyl)-5-(hydroxymethyl)-3-methyl-1H-pyrazole-4-carboxamide]"
14,96,"Cc1nn(-c2ccc(F)c3cc(Cc4cccc(C(F)(F)F)c4)sc23)c(CO)c1C(=O)NCC(N)=O [Example 72, N-(2-amino-2-oxoethyl)-1-[4-fluoro-2-[3-(trifluoromethyl)benzyl]-1-benzothiophen-7-yl]-5-(hydroxymethyl)-3-methyl-1H-pyrazole-4-carboxamide]"
15,97,"Cc1nn(-c2ccc(F)c3cc(Cc4cccc(C(F)(F)F)c4)sc23)c(CO)c1C(N)=O [Example 73, 1-[4-fluoro-2-[3-(trifluoromethyl)benzyl]-1-benzothiophen-7-yl]-5-(hydroxymethyl)-3-methyl-1H-pyrazole-4-carboxamide]"
16,98,"Cc1nn(-c2cccc3oc(Cc4cccc(C(F)(F)F)c4)cc23)c(C)c1C(=O)NCC(N)=O [Example 74, N-(2-amino-2-oxoethyl)-3,5-dimethyl-1-[2-[3-(trifluoromethyl)benzyl]-1-benzofuran-4-yl]-1H-pyrazole-4-carboxamide]"
17,101,"Cc1nn(-c2cccc3oc(Cc4cccc(C(F)(F)F)c4)cc23)c(C)c1C(=O)NCCO [Example 75, N-(2-hydroxyethyl)-3,5-dimethyl-1-[2-[3-(trifluoromethyl)benzyl]-1-benzofuran-4-yl]-1H-pyrazole-4-carboxamide]"
18,95,"Cc1nn(-c2cccc3oc(Cc4cccc(C(F)(F)F)c4)cc23)c(C)c1C(N)=O [Example 76, 3,5-dimethyl-1-[2-[3-(trifluoromethyl)benzyl]-1-benzofuran-4-yl]-1H-pyrazole-4-carboxamide]"
19,104,"Cc1nn(-c2cccc3nn(Cc4cccc(C(F)(F)F)c4)cc23)c(C)c1C(N)=O [Example 78, 3,5-dimethyl-1-[2-[3-(trifluoromethyl)benzyl]-2H-indazol-4-yl]-1H-pyrazole-4-carboxamide]"
20,102,"Cc1nn(-c2cccc3nn(Cc4cccc(C(F)(F)F)c4)cc23)c(C)c1C(=O)NCCO [Example 79, N-(2-hydroxyethyl)-3,5-dimethyl-1-[2-[3-(trifluoromethyl)benzyl]-2H-indazol-4-yl]-1H-pyrazole-4-carboxamide]"
21,98,"Cc1nn(-c2cccc3nn(Cc4cccc(C(F)(F)F)c4)cc23)c(C)c1C(=O)NCC(N)=O [Example 80, N-(2-amino-2-oxoethyl)-3,5-dimethyl-1-[2-[3-(trifluoromethyl)benzyl]-2H-indazol-4-yl]-1H-pyrazole-4-carboxamide]"
22,102,"Cc1nn(-c2cccc3nn(Cc4cc(F)cc(Cl)c4)cc23)c(C)c1C(N)=O [Example 81, 1-[2-(3-chloro-5-fluorobenzyl)-2H-indazol-4-yl]-3,5-dimethyl-1H-pyrazole-4-carboxamide]"
23,105,"Cc1nn(-c2cccc3nn(Cc4cc(F)cc(Cl)c4)cc23)c(C)c1C(=O)NCCO [Example 82, 1-[2-(3-chloro-5-fluorobenzyl)-2H-indazol-4-yl]-N-(2-hydroxyethyl)-3,5-dimethyl-1H-pyrazole-4-carboxamide]"
24,104,"Cc1nn(-c2cccc3nn(Cc4cc(F)cc(C(F)(F)F)c4)cc23)c(C)c1C(N)=O [Example 83, 1-[2-[3-fluoro-5-(trifluoromethyl)benzyl]-2H-indazol-4-yl]-3,5-dimethyl-1H-pyrazole-4-carboxamide]"
25,105,"Cc1nn(-c2cccc3nn(Cc4cc(F)cc(C(F)(F)F)c4)cc23)c(C)c1C(=O)NCCO [Example 84, 1-[2-[3-fluoro-5-(trifluoromethyl)benzyl]-2H-indazol-4-yl]-N-(2-hydroxyethyl)-3,5-dimethyl-1H-pyrazole-4-carboxamide]"
26,85,"Cc1nc(-c2cccc3nn(Cc4cc(F)cc(C(F)(F)F)c4)cc23)sc1C(N)=O [Example 86, 2-[2-[3-fluoro-5-(trifluoromethyl)benzyl]-2H-indazol-4-yl]-4-methyl-1,3-thiazole-5-carboxamide]"
27,92,"O=C(NCCO)c1sc(-c2cccc3cc(Cc4cccc(C(F)(F)F)c4)sc23)nc1C(F)(F)F [Example 87, N-(2-hydroxyethyl)-4-(trifluoromethyl)-2-[2-[3-(trifluoromethyl)benzyl]-1-benzothiophen-7-yl]-1,3-thiazole-5-carboxamide]"
28,83,"O=C(NCCO)c1sc(-c2cccc3nn(Cc4cccc(C(F)(F)F)c4)cc23)nc1C(F)(F)F [Example 88, N-(2-hydroxyethyl)-4-(trifluoromethyl)-2-[2-[3-(trifluoromethyl)benzyl]-2H-indazol-4-yl]-1,3-thiazole-5-carboxamide]"
29,99,"Cc1nn(-c2ccc(F)c3cc(Cc4cc(F)cc(Cl)c4)sc23)c(CO)c1C(=O)NCC(N)=O [Example 89, N-(2-amino-2-oxoethyl)-1-[2-(3-chloro-5-fluorobenzyl)-4-fluoro-1-benzothiophen-7-yl]-5-(hydroxymethyl)-3-methyl-1H-pyrazole-4-carboxamide]"

# Same assay, conditions: concentration of the test compound at which it shows 50% activity; human GPR52-expressing CHO(dhfr-) cells; read-out: GPR52 agonist activity EC50
row,EC50 [nM],Structure (SMILES)
1,18,"Cc1nn(-c2cccc3cc(Cc4cccc(C(F)(F)F)c4)sc23)c(CO)c1C(N)=O [Example 64, 5-(hydroxymethyl)-3-methyl-1-[2-[3-(trifluoromethyl)benzyl]-1-benzothiophen-7-yl]-1H-pyrazole-4-carboxamide]"
2,170,"Cc1c(C(=O)NCC(N)=O)c(CO)nn1-c1cccc2cc(Cc3cccc(C(F)(F)F)c3)sc12 [Example 68, N-(2-amino-2-oxoethyl)-3-(hydroxymethyl)-5-methyl-1-[2-[3-(trifluoromethyl)benzyl]-1-benzothiophen-7-yl]-1H-pyrazole-4-carboxamide]"
3,27,"Cc1nn(-c2ccc(F)c3cc(Cc4cccc(C(F)(F)F)c4)sc23)c(CO)c1C(=O)NCCO [Example 71, 1-[4-fluoro-2-[3-(trifluoromethyl)benzyl]-1-benzothiophen-7-yl]-N-(2-hydroxyethyl)-5-(hydroxymethyl)-3-methyl-1H-pyrazole-4-carboxamide]"
4,30,"Cc1nn(-c2cccc3oc(Cc4cccc(C(F)(F)F)c4)cc23)c(C)c1C(=O)NCCO [Example 75, N-(2-hydroxyethyl)-3,5-dimethyl-1-[2-[3-(trifluoromethyl)benzyl]-1-benzofuran-4-yl]-1H-pyrazole-4-carboxamide]"
